Data reported in PMC12652692, “Synthesis and In Vitro Anticancer Evaluation of Novel Phosphonium Derivatives of Chrysin” (International Journal of Molecular Sciences, 2025).

Experiments:
Assay in all cases: NCI60 one-dose screen
Assay type in all cases: cell-based
UO-31 = conditions: Homo sapiens; UO-31, 10 μM; read-out: Growth percent
Description: (§1) The screening results are presented in the Supplementary Materials (Table S1), where the cytotoxicity was determined for the 10 µM concentration. […] The negative numbers indicate significant decreases in the cell number. […] Compared to the reference chrysin (2), all phosphonium hybrids (3a–h) had significant antiproliferative activities. […] At the same time, it should be noted that more than 60% average reduction was also obtained in the case of the other examined conjugates (3a–h).
(§2) A detailed description of the NCI screening procedures, including the one-dose and five-dose tests, can be found in the Supplementary Materials, on the website of NCI [39], and in our previous work.
(§3) A detailed description of the NCI screening procedures can also be found on the website of NCI [39], and in our […]
(§4) All candidates were examined at first at a single high dose (10 μM) in the full NCI60 cell panel. The value reported for the one-dose test is growth relative to the no-drug control and relative to the time zero number of cells. This made possible the disclosure of both growth inhibition (numbers between 0 and 100) and lethality (numbers less than 0). For example, a value of 100 means no growth inhibition. A value of 20 would mean 80% growth inhibition. A value of 0 means no net growth over the course of the analysis. A value of −20 would mean 20% lethality. A value of −100 means all cells are dead. […]
(§5) concentration levels. The human tumor cell lines of the cancer screening panel were grown in RPMI 1640 medium containing 5% fetal bovine serum and 2 mM l-glutamine. Characteristically, cells were injected in 96-well microtiter plates in 0.1 mL at plating densities ranging from 5000 to 40,000 cells/well, depending on the doubling time of individual cell lines. After cell inoculation, the microtiter plates were incubated at 37 °C, 5% carbon dioxide, 95% air, and 100% relative humidity for 24 hours before the addition of tested compounds. After 24 hours, 2 plates of each cell line were fixed in situ with Cl3COOH (TCA), to represent a measurement of the cell population for each cell line at the time of drug addition (tz). Tested compounds were solubilized in DMSO at 400-fold the desired final maximum test concentration and stored frozen before application. In the course of the drug addition, an aliquot of frozen concentrate was thawed and diluted to twice the desired final maximum test concentration with a complete medium containing 50 μg mL−1 gentamicin. Additional four, 10-fold or ½ log serial dilutions were produced to furnish a total of five drug concentrations plus control. Aliquots of 0.1 mL of these different drug dilutions were added to the appropriate microtiter wells already containing 0.1 mL of medium, resulting in the required final drug concentrations.
(§6) Following drug addition, the plates were incubated at 37 °C, 5% carbon dioxide, 95% air, and 100% relative humidity for an additional 48 hours. For adherent cells, the test was finished by the addition of cold Cl3COOH. Cells were fixed in situ by the addition of 50 μL of cold 50% (w/v) Cl3COOH, and incubated at 4 °C for 1 hour. The supernatant was discarded, and the plates were washed with H2O (5×) and dried in air. Sulforhodamine B (SRB) solution (0.1 mL) at 0.4% (w/v) in 1% CH3COOH was added to each well, and plates were incubated at RT for 10 min. After staining, the unbound dye was removed by washing five times with 1% CH3COOH, and the plates were dried in the air. The bound stain is afterward solubilized with a 10 mM trizma base, and the absorbance is read on an automated plate reader at λ = 515 nm. Utilizing the seven absorbance measurements [time zero (tz), control growth (c), and test growth in the presence of the drug at the five concentration levels (ti)], the percentage growth was determined at each of the drug concentration levels. Growth inhibition (%) was calculated as:
(§7) [(ti − tz)/(c − tz)] × 100, for concentrations where ti ≥ tz (1) […]

IGROV1 = conditions: Homo sapiens, IGROV-1; IGROV1, 10 μM; read-out: Growth percent
Description: as §1, §2, §3, §4, §5, §6, §7

HOP-62 = conditions: Homo sapiens; HOP-62, 10 μM; read-out: Growth percent
Description: as §1, §2, §3, §4, §5, §6, §7

MCF7 = conditions: Homo sapiens; MCF7, 10 μM; read-out: Growth percent
Description: as §1, §2, §3, §4, §5, §6, §7

COLO 205 = conditions: Homo sapiens; COLO 205, 10 μM; read-out: Growth percent
Description: as §1, §2, §3, §4, §5, §6, §7

MALME-3M = conditions: Homo sapiens, read-out: Growth percent
Description: as §1, §2, §3, §4, §5, §6, §7

786-0 = conditions: Homo sapiens; 786-0, 10 μM; read-out: Growth percent
Description: as §1, §2, §3, §4, §5, §6, §7

K-562 = conditions: Homo sapiens, K562; K-562, 10 μM; read-out: Growth percent
Description: as §1, §2, §3, §4, §5, §6, §7

KM12 = conditions: Homo sapiens; KM12, 10 μM; read-out: Growth percent
Description: as §1, §2, §3, §4, §5, §6, §7

A498 = conditions: Homo sapiens; A498, 10 μM; read-out: Growth percent
Description: as §1, §2, §3, §4, §5, §6, §7

CAKI-1 = conditions: Homo sapiens; CAKI-1, 10 μM; read-out: Growth percent
Description: as §1, §2, §3, §4, §5, §6, §7

MDA-MB-468 = conditions: Homo sapiens; MDA-MB-468, 10 μM; read-out: Growth percent
Description: as §1, §2, §3, §4, §5, §6, §7

HT29 = conditions: Homo sapiens, HT-29; HT29, 10 μM; read-out: Growth percent
Description: as §1, §2, §3, §4, §5, §6, §7

MOLT-4 = conditions: Homo sapiens; MOLT-4, 10 μM; read-out: Growth percent
Description: as §1, §2, §3, §4, §5, §6, §7

NCI-H522 = conditions: Homo sapiens; NCI-H522, 10 μM; read-out: Growth percent
Description: as §1, §2, §3, §4, §5, §6, §7

RPMI-8226 = conditions: Homo sapiens; RPMI-8226, 10 μM; read-out: Growth percent
Description: as §1, §2, §3, §4, §5, §6, §7

M14 = conditions: Homo sapiens; M14, 10 μM; read-out: Growth percent
Description: as §1, §2, §3, §4, §5, §6, §7

OVCAR-4 = conditions: Homo sapiens; OVCAR-4, 10 μM; read-out: Growth percent
Description: as §1, §2, §3, §4, §5, §6, §7

SF-539 = conditions: Homo sapiens; SF-539, 10 μM; read-out: Growth percent
Description: as §1, §2, §3, §4, §5, §6, §7

OVCAR-3 = conditions: Homo sapiens; OVCAR-3, 10 μM; read-out: Growth percent
Description: as §1, §2, §3, §4, §5, §6, §7

Compound	activity at 10 µM (UO-31)	activity at 10 µM (IGROV1)	activity at 10 µM (HOP-62)	activity at 10 µM (MCF7)	activity at 10 µM (COLO 205)	activity at 10 µM (MALME-3M)	activity at 10 µM (786-0)	activity at 10 µM (K-562)	activity at 10 µM (KM12)	activity at 10 µM (A498)	activity at 10 µM (CAKI-1)	activity at 10 µM (MDA-MB-468)	activity at 10 µM (HT29)	activity at 10 µM (MOLT-4)	activity at 10 µM (NCI-H522)	activity at 10 µM (RPMI-8226)	activity at 10 µM (M14)	activity at 10 µM (OVCAR-4)	activity at 10 µM (SF-539)	activity at 10 µM (OVCAR-3)
O=c1cc(-c2ccccc2)oc2cc(OCCCC[P+](c3ccccc3)(c3ccccc3)c3ccccc3)cc(O)c12 [3a]	-97.1%	-75.7%	-63.6%	-79.1%	-56.3%	-88%	-69.5%	-24.1%	-85.2%	-83.3%	-97.1%	-84.9%	-65%	-41.7%	-81.9%	-66.7%	-70.1%	-69.1%	-95.7%	-94%
Cc1ccc([P+](CCCCOc2cc(O)c3c(=O)cc(-c4ccccc4)oc3c2)(c2ccc(C)cc2)c2ccc(C)cc2)cc1 [3b]	-82.5%	-46.9%	-62%	-74.8%	-64.5%	-57.9%	-69.8%	-4.21%	-75.5%	-81.5%	-90.4%	-87%	-60.7%	-43.4%	-74.4%	-55.8%	-75.2%	-73.1%	-80.5%	-88.2%
COc1ccc([P+](CCCCOc2cc(O)c3c(=O)cc(-c4ccccc4)oc3c2)(c2ccc(OC)cc2)c2ccc(OC)cc2)cc1 [3c]	-89.9%	-6.99%	-81.1%	-56.8%	-68.3%	-45%	-65.3%	-39.8%	-86.2%	-83%	-75.5%	-77.4%	-82.8%	-51.6%	-84.9%	-67.5%	-1.24%	-74.3%	-66.9%	-68.1%
O=c1cc(-c2ccccc2)oc2cc(OCCCC[P+](c3ccc(F)cc3)(c3ccc(F)cc3)c3ccc(F)cc3)cc(O)c12 [3d]	-86.9%	-64%	-70.8%	-84.8%	-68.4%	-82.4%	-56.5%	-17.6%	-81.6%	-87.6%	-93.6%	-85.7%	-69.8%	-24.3%	-74.4%	-30.1%	-75.5%	-48.1%	-89.6%	-72%
O=c1cc(-c2ccccc2)oc2cc(OCCCC[P+](C3CCCCC3)(C3CCCCC3)C3CCCCC3)cc(O)c12 [3e]	-92.5%	-59.4%	-82.6%	-77%	-70.2%	-76.9%	-80.1%	3.17%	-92%	-87.6%	-90.8%	-83.5%	-84.9%	-60.6%	-88%	-62.6%	-82.2%	-64.5%	87.1%	-81.9%
COc1c(C)cc([P+](CCCCOc2cc(O)c3c(=O)cc(-c4ccccc4)oc3c2)(c2cc(C)c(OC)c(C)c2)c2cc(C)c(OC)c(C)c2)cc1C [3f]	-59.6%	-38%	-25.2%	-58%	-62.2%	-42.5%	-47%	6.85%	-82.3%	-83.4%	-51.6%	-76%	-72.7%	-42.5%	-77.3%	-42.9%	-68.3%	-65.5%	-89.2%	-69.8%
Cc1ccccc1[P+](CCCCOc1cc(O)c2c(=O)cc(-c3ccccc3)oc2c1)(c1ccccc1C)c1ccccc1C [3g]		-99.1%	-98.3%	-95.4%	-97%	-98.5%	-98.1%	-97.5%	-95.8%	-99.1%	-97.2%	-99.4%	-97.9%	-98.6%	-98.5%	-98.5%	-97.5%	-98.7%	-97.7%	-99.1%
O=c1cc(-c2ccccc2)oc2cc(OCCCC[P+](c3ccccc3)(c3ccccc3)c3ccccn3)cc(O)c12 [3h]	-94%	-80.1%	-57%	-62.6%	-75.9%	-93.4%	-74.5%	-51.3%	-94.6%	-94%	-71.2%	-90.7%	-60.6%	21.1%	-72.3%	-35.3%	-84.3%	-51.2%	-96.5%	-93.7%
